Source: patent publication US10590082B2, “N-(5-((aryl or heteroaryl)methyloxy)pentyl)-substituted iminosugars as inhibitors of glucosylceramide synthase” (Academisch Medisch Centrum, priority 2014, dated 2020)
Like-named read-outs stand apart in the source and are kept apart here.

Tests used:
[1] = target: T1, glucosylceramide synthase (GCS) (Mus musculus, UniProt O88693); assay: GCS activity in living macrophage  cells (C6-NBD lipid, TLC readout); assay type: cell-based
T1 construct: IC50 values for GCS activity were measured using living cells; endogenous in cells
T1 sequence (O88693 1-394): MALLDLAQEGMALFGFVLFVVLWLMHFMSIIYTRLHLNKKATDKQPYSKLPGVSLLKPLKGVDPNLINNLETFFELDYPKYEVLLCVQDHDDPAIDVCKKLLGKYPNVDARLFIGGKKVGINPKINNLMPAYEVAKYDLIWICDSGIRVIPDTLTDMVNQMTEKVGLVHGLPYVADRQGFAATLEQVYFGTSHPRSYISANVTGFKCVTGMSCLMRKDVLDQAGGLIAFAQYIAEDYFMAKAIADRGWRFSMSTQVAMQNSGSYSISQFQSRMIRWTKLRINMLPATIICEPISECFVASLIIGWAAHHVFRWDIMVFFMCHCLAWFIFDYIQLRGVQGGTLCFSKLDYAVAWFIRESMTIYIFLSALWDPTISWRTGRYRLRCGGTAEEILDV

GBA1 = target: T2, GBA1 (Homo sapiens, UniProt P04062, R534H); assay: GBA1 activity, recombinant human enzyme (Cerezyme), 4-MU-β-glucoside substrate; assay type: biochemical;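 also: enzyme activity read out as fluorescence of the 4-MU released from the substrate, measured on a fluorimeter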
T2 construct: purchased Sanofi (Cerezyme)
T2 sequence (P04062 40-536 R534H): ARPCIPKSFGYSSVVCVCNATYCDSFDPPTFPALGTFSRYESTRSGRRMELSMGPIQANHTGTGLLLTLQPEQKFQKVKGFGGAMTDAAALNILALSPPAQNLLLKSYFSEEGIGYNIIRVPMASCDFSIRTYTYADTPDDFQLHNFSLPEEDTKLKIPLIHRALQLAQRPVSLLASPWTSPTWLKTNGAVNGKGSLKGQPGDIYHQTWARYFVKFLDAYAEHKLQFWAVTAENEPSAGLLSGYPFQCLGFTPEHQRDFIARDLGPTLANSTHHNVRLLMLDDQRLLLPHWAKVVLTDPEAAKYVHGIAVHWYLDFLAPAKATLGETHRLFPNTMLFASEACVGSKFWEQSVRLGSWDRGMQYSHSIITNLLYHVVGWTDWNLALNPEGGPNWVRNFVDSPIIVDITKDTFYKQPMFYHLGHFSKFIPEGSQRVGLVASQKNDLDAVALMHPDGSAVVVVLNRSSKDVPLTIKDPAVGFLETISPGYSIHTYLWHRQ

GBA2 = target: T3, GBA2 (Homo sapiens, UniProt Q9HCG7); assay: GBA2 activity, membrane fraction from Gaucher spleen, 4-MU-β-glucoside substrate; assay type: biochemical;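 also: Read-out is fluorimetric quantification of released 4-MU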
T3 construct: measured using a membrane fraction obtained from Gaucher spleen; from tissue; host or cells: membrane fraction of Gaucher spleen, pre-treated with conduritol B-epoxide
T3 sequence (Q9HCG7 1-927): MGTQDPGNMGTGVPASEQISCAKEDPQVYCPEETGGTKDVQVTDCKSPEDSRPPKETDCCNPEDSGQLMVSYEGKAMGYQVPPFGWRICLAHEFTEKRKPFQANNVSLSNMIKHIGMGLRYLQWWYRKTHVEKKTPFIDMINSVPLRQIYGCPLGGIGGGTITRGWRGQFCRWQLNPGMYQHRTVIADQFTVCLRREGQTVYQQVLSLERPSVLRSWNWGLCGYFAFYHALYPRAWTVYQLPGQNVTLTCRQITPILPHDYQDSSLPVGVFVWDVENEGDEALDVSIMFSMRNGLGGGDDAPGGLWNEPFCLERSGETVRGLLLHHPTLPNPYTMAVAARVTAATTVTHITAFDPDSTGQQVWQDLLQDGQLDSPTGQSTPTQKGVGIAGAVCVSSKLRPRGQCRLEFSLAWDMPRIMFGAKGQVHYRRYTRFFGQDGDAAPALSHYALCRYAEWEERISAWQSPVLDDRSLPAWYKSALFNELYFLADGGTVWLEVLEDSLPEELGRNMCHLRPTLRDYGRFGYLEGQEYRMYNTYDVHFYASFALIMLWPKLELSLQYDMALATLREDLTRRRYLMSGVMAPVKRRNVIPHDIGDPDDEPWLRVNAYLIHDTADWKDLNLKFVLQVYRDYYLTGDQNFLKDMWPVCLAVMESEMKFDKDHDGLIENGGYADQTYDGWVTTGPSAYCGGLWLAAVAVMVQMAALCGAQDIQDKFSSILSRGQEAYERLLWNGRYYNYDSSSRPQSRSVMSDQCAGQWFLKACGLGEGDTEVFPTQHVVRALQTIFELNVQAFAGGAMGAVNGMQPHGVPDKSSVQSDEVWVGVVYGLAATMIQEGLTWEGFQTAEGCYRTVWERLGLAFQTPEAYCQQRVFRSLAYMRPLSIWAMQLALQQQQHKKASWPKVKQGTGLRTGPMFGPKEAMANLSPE

[2] = L-ido configuration series, Example 4
[3] = D-gluco configuration series, Example 3
[4] = D-gluco configuration series, Example 3, read-out: GCS [nM] (IC50)
[5] = L-ido configuration series, Example 4, read-out: GCS [nM] (IC50)

SMILES	IC50 ([1]; read-out: GCS [nM] (IC50))	IC50 (GBA1) [nM]	IC50 (GBA2; [2]) [nM]	IC50 (GBA2; [3]) [nM]	IC50 [1, 4] [nM]	IC50 [1, 5] [nM]	IC50 (GBA2) [nM]	IC50 ([1]; read-out: inhibitory potency towards GCS, expressed as IC50) [nM]
OC[C@H]1[C@@H](O)[C@H](O)[C@@H](O)CN1CCCCCOCc1ccc(-c2ccccc2)cc1F [Compound 46]	5	8000	0.4					
COc1cccc(-c2ccc(COCCCCCN3C[C@H](O)[C@@H](O)[C@H](O)[C@H]3CO)cc2)c1 [Compound 32]	150	2500		20				
Cc1cccc(-c2ccc(COCCCCCN3C[C@H](O)[C@@H](O)[C@H](O)[C@H]3CO)cc2)c1 [Compound 35]	100	250		2				
OC[C@@H]1[C@@H](O)[C@H](O)[C@@H](O)CN1CCCCCOCc1ccc(-c2ccccc2)c(F)c1 [Compound 7]	25	200						
OC[C@@H]1[C@@H](O)[C@H](O)[C@@H](O)CN1CCCCCOCc1ccc(-c2ccc(Cl)cc2)cc1 [Compound 24]	25	500		2				
OC[C@@H]1[C@@H](O)[C@H](O)[C@@H](O)CN1CCCCCOCc1ccc(-c2ccccc2)cc1C(F)(F)F [Compound 8]	25	200		0.12				
OC[C@@H]1[C@@H](O)[C@H](O)[C@@H](O)CN1CCCCCOCc1ccc(-c2ccc(F)cc2)cc1 [Compound 27]	25	400		1				
Cc1ccccc1-c1ccc(COCCCCCN2C[C@H](O)[C@@H](O)[C@H](O)[C@H]2CO)cc1 [Compound 34]		70		0.5	25			
OC[C@@H]1[C@@H](O)[C@H](O)[C@@H](O)CN1CCCCCOCc1ccc(-c2ccccc2)c(C(F)(F)F)c1 [Compound 9]	25	100						
OC[C@H]1[C@@H](O)[C@H](O)[C@@H](O)CN1CCCCCOCc1ccc(-c2ccccc2)c(F)c1 [Compound 47]	2.5	6000	0.6					
C[C@H](OCCCCCN1C[C@H](O)[C@@H](O)[C@H](O)[C@@H]1CO)c1ccc(-c2ccccc2)cc1 [Compound 38]		10000	2			30		
OC[C@@H]1[C@@H](O)[C@H](O)[C@@H](O)CN1CCCCCOCc1ccc(-c2ccc(F)nc2)cc1 [Compound 15]	750	3000		5				
OC[C@H]1[C@@H](O)[C@H](O)[C@@H](O)CN1CCCCCOCc1ccc(-c2ccccc2)c(C(F)(F)F)c1 [Compound 45]	3	6000	0.1					
OC[C@H]1[C@@H](O)[C@H](O)[C@@H](O)CN1CCCCCOCc1ccc(-c2ccccc2)cc1C(F)(F)F [Compound 44]	3	5000	0.1					
OC[C@@H]1[C@@H](O)[C@H](O)[C@@H](O)CN1CCCCCOCc1ccc(-c2cccnc2)cc1 [Compound 17]	200	3000		10				
OC[C@@H]1[C@@H](O)[C@H](O)[C@@H](O)CN1CCCCCOCc1ccc(-c2cc(C(F)(F)F)cc(C(F)(F)F)c2)cc1 [Compound 22]	20	800		15				
OC[C@@H]1[C@@H](O)[C@H](O)[C@@H](O)CN1CCCCCOCc1ccc(-c2ccc(C(F)(F)F)cc2)cc1 [Compound 23]	20	800		10				
OC[C@@H]1[C@@H](O)[C@H](O)[C@@H](O)CN1CCCCCOCc1ccc(-c2cccc(F)c2)cc1 [Compound 26]	25	250					2	
OC[C@H]1[C@@H](O)[C@H](O)[C@@H](O)CN1CCCCCOCc1ccccc1-c1ccccc1 [Compound 40]	25	15000	3					
OC[C@@H]1[C@@H](O)[C@H](O)[C@@H](O)CN1CCCCCOCc1cccc(-c2ccccc2)c1 [Compound 13]	75	300		2				
OC[C@@H]1[C@@H](O)[C@H](O)[C@@H](O)CN1CCCCCOCc1ccc(-c2ccncc2)cc1 [Compound 18]		2000		10	2000			
C[C@H](OCCCCCN1C[C@H](O)[C@@H](O)[C@H](O)[C@H]1CO)c1ccc(-c2ccccc2)cc1 [Compound 4]		10000			50			100
OC[C@@H]1[C@@H](O)[C@H](O)[C@@H](O)CN1CCCCCOCc1ccc(-c2ccccc2)cn1 [Compound 12]	200	1500		3				
C[C@@H](OCCCCCN1C[C@H](O)[C@@H](O)[C@H](O)[C@@H]1CO)c1ccc(-c2ccccc2)cc1 [Compound 39]		10000	1			40		
OC[C@H]1[C@@H](O)[C@H](O)[C@@H](O)CN1CCCCCOCc1cccc(-c2ccccc2)c1 [Compound 41]	75	20000	2					
OC[C@@H]1[C@@H](O)[C@H](O)[C@@H](O)CN1CCCCCOCc1ccc(-c2ccc3c(c2)OCO3)cc1 [Compound 21]	25	2500					10	
OC[C@H]1[C@@H](O)[C@H](O)[C@@H](O)CN1CCCC(F)(F)COCc1ccc(-c2ccccc2)cc1 [Compound 43]	15	12500	2					
OC[C@H]1[C@@H](O)[C@H](O)[C@@H](O)CN1CC(F)(F)CCCOCc1ccc(-c2ccccc2)cc1 [Compound 42]		500000	2					
C[C@@H](OCCCCCN1C[C@H](O)[C@@H](O)[C@H](O)[C@H]1CO)c1ccc(-c2ccccc2)cc1 [Compound 5]		10000			40			
OC[C@@H]1[C@@H](O)[C@H](O)[C@@H](O)CN1CCCCCOCc1ccc(-c2ccccc2)cc1F [Compound 6]	25	250						
